The record followed here is paper PMC9418665, “Fatty acid amide hydrolase inhibition and N‐arachidonoylethanolamine modulation by isoflavonoids: A novel target for upcoming antidepressants” (Pharmacology Research & Perspectives, 2022).

Read-outs that look alike come from different tables or passages of the source.

The assay concerns the target T1, fatty acid amide hydrolase (FAAH) (Homo sapiens, UniProt O00519).
T1 sequence (O00519 1-579): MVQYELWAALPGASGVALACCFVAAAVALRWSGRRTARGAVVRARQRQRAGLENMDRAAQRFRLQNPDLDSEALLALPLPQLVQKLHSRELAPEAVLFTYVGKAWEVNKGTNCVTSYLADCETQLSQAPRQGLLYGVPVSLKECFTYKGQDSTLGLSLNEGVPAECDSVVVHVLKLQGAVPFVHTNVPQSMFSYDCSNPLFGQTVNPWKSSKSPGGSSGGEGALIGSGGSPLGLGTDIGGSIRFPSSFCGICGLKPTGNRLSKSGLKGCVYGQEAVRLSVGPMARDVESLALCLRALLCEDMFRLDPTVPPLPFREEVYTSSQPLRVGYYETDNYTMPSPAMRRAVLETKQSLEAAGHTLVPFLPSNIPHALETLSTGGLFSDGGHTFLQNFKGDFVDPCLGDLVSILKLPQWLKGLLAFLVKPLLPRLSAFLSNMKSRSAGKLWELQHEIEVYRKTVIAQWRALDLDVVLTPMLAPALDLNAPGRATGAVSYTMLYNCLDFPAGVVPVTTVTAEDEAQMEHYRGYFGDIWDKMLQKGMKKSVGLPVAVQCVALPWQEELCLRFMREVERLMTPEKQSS
The assay can be described thus: biochemical.

One may read the IC50 as the point on the concentration scale where inhibition reaches its midpoint.

Regarding `O=c1cc(-c2ccccc2)oc2cc(O)ccc12` [7-hydroxyflavone], the IC50 was 2.04 ± 0.19 µM. Take `COc1ccc(-c2coc3cc(O)cc(O)c3c2=O)cc1` [biochanin-A]: the IC50 (read-out: IC50) is 2.1 ± 0.24 µM. Take `CCCCC/C=C\C/C=C\C/C=C\C/C=C\CCCC(=O)NCCc1c[nH]c2ccc(O)cc12` [arch-5HT]: the IC50 stood at 1.04 ± 0.13 µM. On to `O=c1c(-c2ccc(O)cc2)coc2cc(O)cc(O)c12` [genistein], for which, where the note is “read-out: IC50”, the IC50 came to 1.3 ± 0.13 µM.
